Test results: BindingDB's records for doi:10.1016/j.bmcl.2008.11.037 (Wyeth Research, 2009)

Molecular target: Insulin-like growth factor 1 receptor (Homo sapiens, UniProt P08069)
Assay: In Vitro Kinase Inhibition Assay
Experimental: Assays were performed in microtiter plates in reaction buffer containing biotinylated substrate, ATP, and purified kinase in the presence of test compounds. After incubation, product was detected using a homogeneous time-resolved fluorescence quenching assay (LANCE).

Sequence of Insulin-like growth factor 1 receptor (P08069 31-736 limits assumed): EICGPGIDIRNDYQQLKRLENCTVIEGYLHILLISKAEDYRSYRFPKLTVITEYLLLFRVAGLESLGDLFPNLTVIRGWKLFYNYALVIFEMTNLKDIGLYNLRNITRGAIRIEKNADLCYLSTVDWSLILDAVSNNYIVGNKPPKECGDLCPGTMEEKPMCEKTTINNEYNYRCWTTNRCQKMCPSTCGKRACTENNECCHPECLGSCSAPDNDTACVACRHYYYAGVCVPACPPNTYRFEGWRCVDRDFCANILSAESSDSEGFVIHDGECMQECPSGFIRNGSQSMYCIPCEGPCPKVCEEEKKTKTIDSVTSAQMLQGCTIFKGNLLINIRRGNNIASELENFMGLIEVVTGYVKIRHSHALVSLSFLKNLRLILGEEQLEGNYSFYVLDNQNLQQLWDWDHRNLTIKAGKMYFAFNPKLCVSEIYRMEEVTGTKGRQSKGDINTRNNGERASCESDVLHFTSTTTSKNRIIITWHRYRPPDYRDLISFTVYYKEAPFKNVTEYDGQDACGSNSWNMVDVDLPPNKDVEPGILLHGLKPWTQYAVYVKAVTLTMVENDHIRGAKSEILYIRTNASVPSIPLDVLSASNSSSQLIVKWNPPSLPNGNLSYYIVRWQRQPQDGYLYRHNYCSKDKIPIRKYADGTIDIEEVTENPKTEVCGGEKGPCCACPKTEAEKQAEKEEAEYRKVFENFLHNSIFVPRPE
Sequence of Insulin-like growth factor 1 receptor (P08069 741-1367 limits assumed): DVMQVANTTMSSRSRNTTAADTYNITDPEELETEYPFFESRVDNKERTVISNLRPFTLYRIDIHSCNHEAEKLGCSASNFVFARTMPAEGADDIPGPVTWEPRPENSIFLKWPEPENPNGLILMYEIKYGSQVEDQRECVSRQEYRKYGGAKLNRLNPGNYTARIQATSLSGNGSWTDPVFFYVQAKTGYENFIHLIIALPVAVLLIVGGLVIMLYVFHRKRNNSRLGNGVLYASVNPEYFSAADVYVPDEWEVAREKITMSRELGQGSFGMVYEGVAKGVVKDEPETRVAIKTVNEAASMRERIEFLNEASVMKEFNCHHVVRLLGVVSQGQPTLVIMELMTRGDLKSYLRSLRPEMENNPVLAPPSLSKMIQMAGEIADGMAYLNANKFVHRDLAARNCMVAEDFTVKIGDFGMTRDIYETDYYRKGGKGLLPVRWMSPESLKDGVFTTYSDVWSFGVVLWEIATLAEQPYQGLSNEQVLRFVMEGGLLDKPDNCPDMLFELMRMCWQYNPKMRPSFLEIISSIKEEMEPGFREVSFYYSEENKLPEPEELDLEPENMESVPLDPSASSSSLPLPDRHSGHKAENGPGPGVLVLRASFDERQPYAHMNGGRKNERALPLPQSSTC

| IC50 | IC50 (pH 7.5, 22 °C) | SMILES |
| --- | --- | --- |
|  | 20 nM | CCn1c(Sc2ccc(Nc3c(C#N)cnc4cc(NCCCN5CCOCC5)c(OC)cc34)cc2Cl)nc(C)c1C [4-({3-chloro-4-[(1-ethyl-4,5-dimethyl-1H-imidazol-2-yl)sulfanyl]phenyl}amino)-6-methoxy-7-{[3-(morpholin-4-yl)propyl]amino}quinoline-3-carbonitrile] |
|  | 291 nM | COc1cc2c(Nc3ccc(Sc4ncc(C)n4C)c(Cl)c3)c(C#N)cnc2cc1NCCCN(C)C [4-({3-chloro-4-[(1,5-dimethyl-1H-imidazol-2-yl)sulfanyl]phenyl}amino)-7-{[3-(dimethylamino)propyl]amino}-6-methoxyquinoline-3-carbonitrile] |

Continued, molecule first:

| SMILES | IC50 | IC50 (pH 7.5, 22 °C) |
| --- | --- | --- |
| COc1cc2c(Nc3ccc(Sc4ccccc4)cc3)c(C#N)cnc2cc1OCCCN1CCOCC1 [6-methoxy-7-[3-(morpholin-4-yl)propoxy]-4-{[4-(phenylsulfanyl)phenyl]amino}quinoline-3-carbonitrile] | 1090 nM |  |
| CCn1c(Sc2ccc(Nc3c(C#N)cnc4cc(OCCCN5CCN(CCOC(N)=O)CC5)c(OC)cc34)cc2Cl)nc(C)c1C [{2-[4-(3-{[4-({3-chloro-4-[(1-ethyl-4,5-dimethyl-1H-imidazol-2-yl)sulfanyl]phenyl}amino)-3-cyano-6-methoxyquinolin-7-yl]oxy}propyl)piperazin-1-yl]ethyl} carbamate] | 17 nM |  |
| CCOC(=O)C1CCN(CCCOc2cc3ncc(C#N)c(Nc4ccc(Sc5nc(C)c(C)n5CC)c(Cl)c4)c3cc2OC)CC1 [ethyl 1-(3-{[4-({3-chloro-4-[(1-ethyl-4,5-dimethyl-1H-imidazol-2-yl)sulfanyl]phenyl}amino)-3-cyano-6-methoxyquinolin-7-yl]oxy}propyl)piperidine-4-carboxylate] |  | 135 nM |
